# Laboratory results as given in ChEMBL document CHEMBL1201862, “PubChem BioAssay data set” (2004).
#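 48-hour exposure; five concentrations; linearly interpolated endpoints. GI50 = concentration required for 50% inhibition of growth.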 Calls of active or inactive are those of the source. Rule as the data show it: active = GI50 up to about 1.1 µM and inactive = higher.
# Assays:
# Assay in all cases: DTP human tumour cell line panel, 48 h
# [1] = system: K562
# [2] = system: PC-3
# [3] = system: MDA-MB-231
# [4] = system: TK-10
# [5] = system: IGROV-1
# [6] = system: SF-268
# [7] = system: OVCAR-8
# [8] = system: SNB-75
# [9] = system: A549
# [10] = system: MCF7
# [11] = system: Hs-578T
# [12] = system: OVCAR-5
# [13] = system: NCI/ADR-RES
# [14] = system: SF-295
# [15] = system: T47D
# [16] = system: A498
# [17] = system: SK-OV-3
# [18] = system: HL-60
# [19] = system: CCRF-CEM
# [20] = system: OVCAR-4
SMILES,GI50 [1],GI50 [2],GI50 [3],GI50 [4],GI50 [5],GI50 [6],GI50 [7],GI50 [8],GI50 [9],GI50 [10],GI50 [11],GI50 [12],GI50 [13],GI50 [14],GI50 [15],GI50 [16],GI50 [17],GI50 [18],GI50 [19],GI50 [20]
N=C(N)NCCCC(=O)O,> 100 µM (inactive),> 100 µM (inactive),> 100 µM (inactive),> 100 µM (inactive),> 100 µM (inactive),> 100 µM (inactive),> 100 µM (inactive),> 100 µM (inactive),> 100 µM (inactive),> 100 µM (inactive),> 100 µM (inactive),> 100 µM (inactive),> 100 µM (inactive),> 100 µM (inactive),> 100 µM (inactive),> 100 µM (inactive),> 100 µM (inactive),> 100 µM (inactive),> 100 µM (inactive),> 100 µM (inactive)
COc1ccccc1C1SCC(=O)N1c1ccc(-n2c(-c3ccccc3)nc3ccccc3c2=O)cc1 (stereo not given),47.9 µM (inactive),80.4 µM (inactive),47.6 µM (inactive),> 100 µM (inactive),46.6 µM (inactive),78.2 µM (inactive),60.4 µM (inactive),3.51 µM (inactive),62.7 µM (inactive),39.1 µM (inactive),39.4 µM (inactive),> 100 µM (inactive),19.3 µM (inactive),75.5 µM (inactive),12.9 µM (inactive),36 µM (inactive),> 100 µM (inactive),> 10 µM (inactive),44.5 µM (inactive),15.8 µM (inactive)
CSC(=N\c1ccccc1)/N=C(\SCc1ccccc1)N(C)C,0.05 µM (active),1.29 µM (inactive),1.17 µM (inactive),1.15 µM (inactive),0.923 µM (active),0.971 µM (active),1.2 µM (inactive),1.62 µM (inactive),1.75 µM (inactive),0.278 µM (active),0.859 µM (active),1.49 µM (inactive),1.38 µM (inactive),1.43 µM (inactive),0.427 µM (active),1.65 µM (inactive),3.24 µM (inactive),0.172 µM (active),0.27 µM (active),0.889 µM (active)
Cc1cnc(NCCCN(C)C)c2c1[nH]c1ccc3cc(O)ccc3c12,1.28 µM (inactive),0.585 µM (active),0.879 µM (active),6.04 µM (inactive),1.19 µM (inactive),0.288 µM (active),0.2 µM (active),0.555 µM (active),0.365 µM (active),0.308 µM (active),0.325 µM (active),0.925 µM (active),3.44 µM (inactive),0.7 µM (active),0.485 µM (active),1.56 µM (inactive),0.569 µM (active),3.32 µM (inactive),1.01 µM (active),0.282 µM (active)
COc1cc2c(NCCCCCO)ncnc2c(OC)c1OC,> 100 µM (inactive),> 100 µM (inactive),95.5 µM (inactive),> 100 µM (inactive),> 100 µM (inactive),> 100 µM (inactive),> 100 µM (inactive),> 100 µM (inactive),> 100 µM (inactive),> 100 µM (inactive),> 100 µM (inactive),> 100 µM (inactive),> 100 µM (inactive),> 100 µM (inactive),> 96.2 µM (inactive),> 100 µM (inactive),> 100 µM (inactive),> 100 µM (inactive),> 93.3 µM (inactive),> 100 µM (inactive)
COC1N(C2CC(O)C(CO)O2)C(=O)NC(=O)C1(F)Br (stereo not given),36.8 µM (inactive),51.3 µM (inactive),> 57.1 µM (inactive),> 100 µM (inactive),14.1 µM (inactive),1.2 µM (inactive),4.02 µM (inactive),36.1 µM (inactive),1.12 µM (active),0.52 µM (active),24.5 µM (inactive),77.8 µM (inactive),10.7 µM (inactive),2.83 µM (inactive),> 72.3 µM (inactive),9.29 µM (inactive),> 50 µM (inactive),> 50 µM (inactive),3.53 µM (inactive),> 50 µM (inactive)
